Consider 3 compounds from patent publication US7304093B2, “Ketone compounds and compositions for cholesterol management and related uses” (Esperion Therapeutics, Inc., priority 2000, dated 2007).

The term IC50 denotes the concentration that inhibits the measured activity by half.

For the assay, the system named is primary rat hepatocytes. The assay can be described thus: Inhibition of lipid synthesis ([1-14C]-acetate incorporation) in primary cultures of rat hepatocytes. It is filed as cell-based. The conditions noted are these: Hepatocyte, 4 h incubation with [1-14C]-acetate, Table 7, ranges: confidence of estimate insufficient to assign a value. Put shortly:
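Monolayer primary hepatocytes from male Sprague-Dawley rats, serum-free overnight, were incubated 4 h with 0, 1, 3, 10, 30, 100 or 300 μM compound and 0.25 μCi [1-14C]-acetate per well. Total lipid synthesis was read as radioactivity in the lipid phase extracted into scintillant.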

As to `CC(C)(CCCCC(=O)CCCCC(C)(C)C(=O)O)C(=O)O` [Compound 210c, 7-Oxo-2,2,12,12-tetramethyltridecanedioic acid], the IC50 was 3000 nM.

Regarding `CC(C)(CCCCCC(=O)CCCCCC(C)(C)C(=O)O)C(=O)O` [Compound 210g, 2,2,14,14-Tetramethyl-8-oxopentadecanedioic acid], the IC50 was 3000 nM.

On to `CC(C)(CO)CCCCC(=O)CCCCC(C)(C)CO` [Compound 214c, 1,13-Dihydroxy-2,2,12,12-tetramethyltridecan-7-one], for which the IC50 was 4000 nM.
